Test results from patent US11566049B2, “Cyclic peptides and uses thereof” (LATERAL IP PTY LTD, priority 2018, dated 2023).
Where “and” joins values, the source holds several entries; their conditions need not be identical. Identical values can stand only once. Entries after “also recorded” stand apart in the source; their conditions may differ.

Tested on: dorsal horn neurons
Experiment: whole-cell recording of dorsal horn neurons in spinal cord slices from Chung models (Example 4)
Type: cell-based, rat
Details: 1 μM; for Input Resistance, mean in presence of peptide / Membrane Potential, mean in presence of peptide: all cells; for Normalised Input Resistance / Normalised Input Resistance ΔIR: control = 100; for effect on membrane potential and activity of dorsal horn neurons: ipsilateral to injury; for Normalised Membrane Potential / Normalised Membrane Potential ΔVm: rest = 100; for ΔIR, change in neuronal input resistance: vs control, in table positive = reduction, negative = increase; for ΔVm, change in membrane potential: vs rest, in table positive = hyperpolarisation, negative = depolarisation; for reversal potential of induced response (VI plots intersect): single cells
Method: Adult male Sprague-Dawley rats, weighing 220-250 g (aged/weeks and older) at the time of surgery, were used in this study. They were housed in groups of 4, in an air-conditioned room, on a 12-hour light/dark cycle with food and water available ad libitum. All experiments were performed in accordance with the U.K. Animals (Scientific Procedures) Act (1986).
The animals were housed in groups of 4 in an air-conditioned room on a 12-hour light/dark cycle. Food and water were available ad libitum. They were allowed to acclimatise to the environment for experiments for three days by leaving them on a raised metal mesh for at least 40 min. The baseline paw withdrawal threshold (PWT) was examined using a series of graduated von Frey hairs (see below) for 3 consecutive days before surgery and re-assessed on the 6th to 8th day after surgery and on the 12th to 14th day after surgery before drug dosing.
Each rat was anaesthetized with 5% isoflurane mixed with oxygen (2 L per min) followed by an intramuscular (i.m.) injection of ketamine 90 mg/kg plus xylazine 10 mg/kg. The back was shaved and sterilized with povidone-iodine. The animal was placed in a prone position and a para-medial incision was made on the skin covering the L4-6 level. The L5 spinal nerve was carefully isolated and tightly ligated with 6/0 silk suture. The wound was then closed in layers after a complete haemostasis. A single dose of antibiotics (Amoxipen, 15 mg/rat, i.p.) was routinely given for prevention of infection after surgery. The animals were placed in a temperature-controlled recovery chamber until fully awake before being returned to their home cages.
LAT9993 LoopS (SEQ ID NO:28), SEQ11+LAT9993 Loop (SEQ ID NO:32; […]), SEQ25+LAT9993 Loop (SEQ ID NO:33; […]), LAT9993 SLoop A4 (SEQ ID NO:30), LAT9993 SLoop A7 (SEQ ID NO:31), LAT9993 SLoop A9 (SEQ ID NO:34; SCRSRPVEASC) and LAT9993 SLoop A10 (SEQ ID NO:35; SCRSRPVESAC), were solubilised in distilled water and made up as concentrated stocks and stored frozen until the day of experiment when they were diluted to the required test concentrations in artificial cerebrospinal fluid (aCSF), as described in Example 3, above.
Ten to fourteen days after surgery, animals were placed in individual Perspex boxes on a raised metal mesh for at least 40 minutes prior to PWT testing. Starting with the filament of lowest force (1 g), each filament was applied perpendicularly to the centre of the ventral surface of the paw until slightly bent for 6 seconds. If the animal withdrew or lifted its paw upon stimulation, a von Frey hair with force immediately lower than that tested was subsequently used. If no response was observed, then a hair with force immediately higher was tested. The lowest amount of force required to induce reliable responses (positive in 2 out of 3 trials) was recorded as the value of PWT. Only animals showing significant mechanical allodynia (PWT≤3.5 g) were selected for subsequent electrophysiological experiments (see FIG. 5).
Once validation of a neuropathic state had been confirmed, animals were terminally anesthetized using isoflurane (Norvartis Animal Health UK Ltd.), cervically dislocated and decapitated. A laminectomy was performed and the spinal cord, with spinal roots and DRG attached, removed and cut into 250-450 μm thick slices using a Leica VT1000S vibrating microtome (Leica Microsystems UK, Milton Keynes, United Kingdom). Slices were maintained in artificial cerebrospinal fluid (aCSF) at room temperature for 1 hr after slicing before recording. For recording, individual slices were held between two grids in a custom-built chamber continuously perfused with aCSF at a rate of 4-10 ml.min^−1, illuminated from below, and viewed under a dissection microscope. The aCSF was of the following composition (mM): NaCl, 127; KCl, 1.9; KH2PO4, 1.2; CaCl2, 2.4; MgCl2, 1.3; NaHCO3, 26; D-glucose, 10; equilibrated with 95% O2-5% CO2. […]

[1] = listed as SEQ 11 + LAT9993 Loop

Sequence | dorsal root afferent-mediated EPSPs / synaptic inputs (words) | Input Resistance, mean in presence of peptide | Membrane Potential, mean in presence of peptide | Normalised Input Resistance | Normalised Input Resistance ΔIR | effect on membrane potential and activity of dorsal horn neurons | Normalised Membrane Potential | Normalised Membrane Potential ΔVm | ΔIR, change in neuronal input resistance | ΔVm, change in membrane potential | reversal potential of induced response (VI plots intersect) | also measured
CRSRPVESSCSSKFSWDEYEQYKKE (listed as Homo sapiens) [SEQ25+LAT9993 Loop, peptide variant of formula (I)] | suppressed dorsal root-evoked excitatory posts-synaptic potentials (EPSPs) in one neurone; also recorded: suppressed dorsal root afferent-mediated synaptic inputs; also recorded: partly suppressed | 339.6±97.6 MΩ | −49.1±3.0 mV | 101.7 | −1.7 | induced inhibition of spontaneous activity and suppressed an after-depolarising potential; also recorded: slight depolarisation of the membrane potential | 93.7 | 6.3 | 1.4±18.2 MΩ | 3.4±0.9 mV | – | Input Resistance, mean in presence of peptide (listed as SEQ25 + LAT9993 Loop): 339.6 MΩ; Membrane Potential, mean in presence of peptide (listed as SEQ25 + LAT9993 Loop): −49.1 mV; ΔIR, change in neuronal input resistance (listed as SEQ25 + LAT9993 Loop): −1.4 MΩ; ΔVm, change in membrane potential (listed as SEQ25 + LAT9993 Loop): −3.4 mV
IDPSSEAPGHSCRSRPVESSC (listed as Homo sapiens) [SEQ11+LAT9993 Loop, peptide variant of formula (I)] | little effect; also recorded: No obvious effect | 338.1±103.7 MΩ | −52.3±9.8 mV | 85.6 | 14.4 | membrane hyperpolarisation and inhibition of activity in 2 neurons; also recorded: membrane depolarisation in the other neurone | 101.4 | −1.4 | 109.5±140.2 MΩ | 1.6±3.4 mV | around −65 mV | Input Resistance, mean in presence of peptide [1]: 338.1 MΩ; Membrane Potential, mean in presence of peptide [1]: −52.3 mV; ΔIR, change in neuronal input resistance [1]: 109.5 MΩ; ΔVm, change in membrane potential [1]: 1.6 mV
SCRARPVESSC (listed as Homo sapiens) [LAT9993 SLoop A4, peptide variant of formula (I)] | suppressed | 294.6±40.7 MΩ | −53.3±5.1 mV | 78.3 | 21.7 | membrane hyperpolarisation and inhibition of activity in 1 neurone; also recorded: membrane depolarisation in 3 neurons | 107.7 | −7.7 | 103.1±55.5 MΩ | 4.2±3.1 mV | – | Input Resistance, mean in presence of peptide (listed as LAT9993 Sloop A4): 294.6 MΩ; Membrane Potential, mean in presence of peptide (listed as LAT9993 Sloop A4): −53.3 mV; effect on membrane potential and activity of dorsal horn neurons (listed as LAT9993 Loop A4): membrane hyperpolarisation and suppression of activity; dorsal root afferent-mediated EPSPs / synaptic inputs (words) (listed as LAT9993 Loop A4): suppressed dorsal root-evoked excitatory synaptic transmission; also recorded: partly suppressed; ΔIR, change in neuronal input resistance (listed as LAT9993 Sloop A4): 103.1 MΩ; ΔVm, change in membrane potential (listed as LAT9993 Sloop A4): 4.2 mV
SCRSRPAESSC (listed as Homo sapiens) [LAT9993 SLoop A7, peptide variant of formula (I)] | suppressed dorsal root-evoked excitatory posts-synaptic potentials (EPSPs) in some neurons | 292.9±81.3 MΩ and 292.9 MΩ | −46.2±4.3 mV and −46.2 mV | 93.3 | 6.7 | membrane hyperpolarisation and inhibition of activity in 1 neurone; also recorded: membrane depolarisation in 1 neurone; also recorded: no effect on membrane potential in the remaining neurone | 95.3 | 4.7 | 22.8±59.8 MΩ and 22.8 MΩ | – | around −90 mV | effect on membrane potential and activity of dorsal horn neurons (listed as LAT9993 Loop A7): membrane depolarisation; dorsal root afferent-mediated EPSPs / synaptic inputs (words) (listed as LAT9993 Loop A7): suppressed dorsal root afferent-mediated excitatory synaptic inputs; also recorded: partly suppressed
SCRSRPVEASC (listed as Homo sapiens) [LAT9993 SLoop A9, peptide variant of formula (I)] | little effect | 243.1±54.4 MΩ and 243.1 MΩ | −45.6±11.2 mV and −45.6 mV | 134.0 | −34.0 | – | 76.9 | 23.1 | – | – | no obvious reversal potentials | dorsal root-evoked IPSPs: little effect; effect on membrane potential and activity of dorsal horn neurons (listed as LAT9993 Loop A9): membrane depolarisation in all neurons; dorsal root afferent-mediated EPSPs / synaptic inputs (words) (listed as LAT9993 Loop A9): no obvious effect; also recorded: little effect
SCRSRPVESAC (listed as Homo sapiens) [LAT9993 SLoop A10, peptide variant of formula (I)] | little effect | 452.3 MΩ | −56.8±5.6 mV and −56.8 mV | 99.3 | 0.7 | – | 101.2 | −1.2 | −8.5 MΩ | 0.7±1.2 mV and 0.7 mV | – | Input Resistance, mean in presence of peptide (listed as LAT9993 Loop A10): 452.3±197.1 MΩ; effect on membrane potential and activity of dorsal horn neurons (listed as LAT9993 Loop A10): membrane hyperpolarisation and inhibition of activity in 2 neurons; also recorded: membrane depolarisation in 1 neurone; also recorded: little effect on dorsal horn neurons; ΔIR, change in neuronal input resistance (listed as LAT9993 Loop A10): 8.5±26.5 MΩ
